Measured values taken from patent US20220015404A1, “TRAUMATIC ACID COMPOSITIONS AND METHODS FOR TASTE MODULATION” (INTERNATIONAL FLAVORS & FRAGRANCES INC., priority 2018, published 2022).

Columns and labels:
Type in all cases: in vivo
[1] = Descriptive sensory evaluation in sugar water (4% sucrose in drinking water); settings: 5 ppm in sugar water (4% sucrose in drinking water), vs base solution
Description: Sugar water (4% sucrose in drinking water) was prepared and used as a base solution. Different amounts of traumatic acid were added to the base solution and descriptive sensory evaluations were performed (Table 1).
Sugar water (4% sucrose in drinking water) was prepared and used as a base solution. Traumatic acid and 3-dodecenedioic acid were added to the base solution and descriptive sensory evaluations were performed (Table 2).

[2] = Descriptive sensory evaluation in sweetened milk (2% fat milk with 2% sucrose); settings: 2 ppm of each acid in sweetened milk (2% fat milk with 2% sucrose), vs base
Description: Sweetened milk (2% fat milk with 2% sucrose) was prepared and used as a base solution (“base”).

[3] = Descriptive sensory evaluation of traumatic acid in different applications
Description: Descriptive sensory evaluations were carried out using different amounts of traumatic acid in different applications.

[4] = Comparison of sweetness and mouthfeel enhancement and off-flavor masking with analogs; settings: 5 ppm, compared with mesaconic acid, glutaconic acid, trans-β-Hydromuconic acid, e-oct-4ene-1, 8-dioic acid

Row | Structure (SMILES) | Taste Evaluation [1] | Taste Evaluation [2] | Taste Evaluation ([3]; 40 ppm in 3% Sugar + 0.05% Citric Acid Water Solution) | Taste Evaluation ([3]; 40 ppm in Water, vs same application without traumatic acid) | sweetness and mouthfeel enhancement as well as off-flavor masking [4]
1 | O=C(O)CC=CCCCCCCCC(=O)O [3-Dodecenedioic acid, 3-dodecenedioic acid] | enhanced the sweetness and mouthfeel of sugar water |  |  |  | 
2 | O=C(O)CCCCCCCCC(=O)O [Sebacic Acid, sebacic acid] |  | increased sweetness and mouthfeel of sweetened milk |  |  | 
3 | O=C(O)/C=C/CCCCCCCCC(=O)O [Traumatic acid, traumatic acid] | enhanced the sweetness and mouthfeel of sugar water | increased sweetness and mouthfeel of sweetened milk | Fatty and oily | Fatty and oily | exhibited the strongest and the longest-lasting effect
